{"source": "paper PMC4948833", "about": "“A Sensitive and Robust High-Throughput Screening Assay for Inhibitors of the Chikungunya Virus nsP1 Capping Enzyme” (PLoS ONE, 2016)", "key": {"[1]": {"molecular_target": "CHIKV nsP1", "assay": "FP Kd determination of GTP-Bodipy and ATP-Bodipy with purified CHIKV nsP1", "conditions": "fluorescence polarization, nsP1 titrated 3 μM to 1 nM, 1 hour 25°C"}, "[2]": {"system": "CHIKV nsP1", "assay": "HTS validation potency repeatability, EC50 of GTP analogs in two independent FP runs"}, "[3]": {"system": "CHIKV nsP1 guanylation activity", "assay": "Guanylation assay, covalent nsP1-GTP-680 formation, SDS-PAGE fluorescence", "conditions": "for Percent of Control: single replicates, scaled guanylation"}, "[4]": {"system": "CHIKV nsP1 GTP binding site", "assay": "FP competition assay, displacement of GTP-Bodipy by GTP and RNA cap analogs (apparent Ki / EC50)"}}, "data": [{"compound": "Bodipy-γ-phosphate-labeled GTP analog [GTP-Bodipy]", "values": [{"measurement": "Kd", "setting": "[1]; 10 nM GTP-Bodipy", "result": 100, "unit": "nM"}]}, {"compound": "Bodipy-γ-phosphate-labeled ATP analog [ATP-Bodipy]", "values": [{"measurement": "Kd", "setting": "[1]; 5 nM ATP-Bodipy", "result": 2100, "unit": "nM"}]}, {"compound": "Nc1nc2c(ncn2[C@@H]2O[C@H](COP(=O)(O)O)[C@@H](O)[C@H]2O)c(=O)[nH]1", "note": "[GMP]", "values": [{"measurement": "Geometric Mean Potency", "setting": "[2]; first set of rows", "result": 3.81}, {"measurement": "Geometric Mean Potency", "setting": "[2]; second set of rows", "result": 3.81}, {"measurement": "ability to inhibit nsP1 guanylation (in words)", "setting": "[3]; 100 μM of each GTP analog, 1 hour, Fig 4", "result": "least ability to inhibit guanylation"}, {"measurement": "Average POC", "setting": "[3]; mean of replicates, 100 μM analog, Fig 4 data", "result": 99.8208}, {"measurement": "Percent of Control", "setting": "[3]; 100 μM analog, Fig 4 data, 100 µM", "result": 96.3413}, {"measurement": "Percent of Control", "setting": "[3]; 100 μM analog, Fig 4 data, listed as GMP2, 100 µM", "result": 112.788}, {"measurement": "Percent of Control", "setting": "[3]; 100 μM analog, Fig 4 data, listed as GMP3, 100 µM", "result": 90.3332}, {"measurement": "affinity for nsP1 GTP binding site / ability to compete with GTP-Bodipy (in words)", "setting": "[4]; FP competition, compared with GTP", "result": "decrease of GMP affinity was quite large"}, {"measurement": "Ki", "setting": "[4]; read-out: Average Ki, apparent Ki, 500 nM nsP1, 10 nM GTP-Bodipy, 1 hour 25°C", "result": 133, "unit": "µM"}]}]}
